Several values for one entry are separate records, joined by “and”; a condition that tells them apart may be missing. Equal values may be shown once. Read-outs that look alike come from different tables or passages of the source.
Tests used:
dt^sz mutant hamster = format: in vivo, Syrian golden hamsters; conditions: for suppressing the symptoms of dystonia (summary statement): summary for the two animal models of dystonia/dyskinesia, no dose given; for Maximum severity 1st h, drug: individual animals and Mean, score 0-6; for Latency to onset (min), Drug: time to stage 2, mean ± S.E.; for Latency max (min), drug: latency to stage 6
Text: Animals The dt^sz mutant hamsters (Syrian golden hamsters), used in the present experiments, were obtained by selective breeding as described in detail elsewhere (Richter and Löscher, 1998). In this inbred line of mutant hamsters the motor disturbances are transmitted by a recessive gene. All animal groups consisted of male and female hamsters, because there was no indication of sex-related differences in the severity of dystonia or in the response to drugs (Richter and Löscher, 1998). The animals were born and kept under controlled environmental conditions (23-25° C., 50-60% humidity, 13 h light/11 h dark cycle) with free access to standard Altromin 7204 diet and water. In cases of oral administrations the food was deprived for 2 h prior to the experiments. All experiments were carried out in the morning (08.30-12.00 a.m.) at controlled temperatures (23-25° C.).
Induction of dystonic episodes and severity-score of dystonia. […] After this procedure, dt^sz hamsters develop a sequence of abnormal movements and postures. Dystonia is the predominant symptom in these animals. The severity of dystonia can be rated by following score-system (Richter and Löscher, 1998): stage 1, flat body posture; stage 2, facial contortions, rearing with forelimbs crossing, disturbed gait with hyperextended forepaws; stage 3, hyperextended hindlimbs so that the animals appear to walk on tiptoes; stage 4, twisting movements and loss of balance; stage 5, hindlimbs hyperextended caudally; stage 6, immobilisation in a twisted, hunched posture with hind- and forelimbs tonically extended forward. After reaching the individual maximum stage the hamsters recover within 2-5 hours. The individual maximum stage of dystonia is usually reached within 3 hours after the hamsters were placed into the new cage. Therefore, the animals have to be observed for 3 h after the induction of dystonic attacks to determine the individual maximum stage reached after administrations of drugs or of vehicle (for pre- and post-drug control recordings).
In the present study, all animals were examined for the presence of dystonia after weaning at the age of 21 days by the triple stimulation procedure, including injections of saline. […] All groups of mutant hamsters used for investigations were repeatedly tested by triple stimulations (injections of saline) every 2 to 3 days after weaning until the severity of dystonia and latencies to the different stages were reproducible. The drug experiments were done in 30-42 days old hamsters, i.e. at an age of the maximum severity of dystonia.
Drug experiments The effects of the Kv7.2/7.3 channel activators retigabine (5, 7.5 and 10 mg/kg i.p. and 10 and 20 mg/kg p.o.) and flupirtine (10 and 20 mg/kg i.p.) were examined in groups of 6-10 dt^s/z hamsters. The total number of animals used for the present experiments was 68. The compounds were freshly dissolved in saline prior the experiments. Dystonic attacks were induced by the procedure of triple stimulation, as described above, but instead of saline the active compound was injected (injection volume: 5 ml/kg i.p. or p.o.). Pre- and post-drug control trials with the vehicle (injection volume: 5 ml/kg saline i.p. or p.o.) were undertaken 2-3 days before and 2-3 days after drug testing in the same animals. […] During this period the severity of dystonia, the latencies to the different stages and the side effects were noted. The rater of the severity score (and of the latencies to stages) was unaware whether the animals were treated with vehicle or an active principle. A second person who had done the preparation of the solutions observed the animals for behavioural effects. The side effects were not quantified, but locomotor activity and ataxia were determined according to a score system, as previously described (Löscher and Richter, 1994). […]

[1] = tested on: L-DOPA induced dyskinesia in 6-OHDA lesioned rats; test: chronic model of L-DOPA induced dyskinesia in unilaterally 6-OHDA lesioned rats (dyskinesia score); format: in vivo; parameters: side effects: dose or concentration left out as unconfirmed
Text: Method: The model has been developed by Cenci, Lee and Bjorklund (L-DOPA-induced dyskinesia in the rat is associated with striatal overexpression of prodynorphin- and glutamic acid decarboxylase mRNA, Eur J. Neurosci. 1998; 10:2694-706) and was modified to show more severe dyskinesia. In brief, rats are first unilaterally lesioned in the medial forebrain bundle resulting in a near complete loss of the mesostriatal dopamine pathway. After a recovery, rats receive daily doses of both, L-DOPA and benserazide. Within less than 3 weeks, rats develop typical dyskinetic movements, both affecting their forearms and the oral regions. […] The dyskinesia can be quantified using an easy and reliable scoring system developed by Cenci et al.
Dopamine-denervating lesions were performed by unilateral injections of 8 μg 6-OHDA in the left medial forebrain bundle of female Sprague-Dawley rats. All rats were tested for amphetamine-induced rotational behaviour 2 weeks after the injection. Rats showing >4 ipsilateral rotations/min over a 90-minute period were presumed to have a striatal dopamine depletion of more than 90%. At 4 weeks post lesion, 2 groups started to receive chronic treatment with either 20 mg/kg levodopa and 15 mg/kg benserazide or vehicle for 20 days. For rating, dyskinesia was classified into three subtypes (limb, axial and orolingual) and scored from 0 (=absent) to 4 (=permanent, not suppressible) over 200 minutes and every 30 minutes.
Results and Discussion: For drug testing, retigabine (2.5 and 5 mg/kg) was administered additional to levodopa and vehicle respectively. Effects of drug action in comparison to vehicle controls were detected by adding up the severity scores of each observation time.
To test the effect of flupirtine, the compound was administered at the dose of 10 mg/kg i.p. after administration of L-DOPA in these rats. A full cross over design was utilized to account for individual variability. […] The studies are ongoing and will we extended to cover a full dose range. Also, other neuronal potassium channel openers covered by the patent application will be tested. […]

[2] = mean of 10 animals, 20 mg/kg i.p., age 36-38 days of life
[3] = 20 mg/kg p.o., first hour after administration

**Q.** Which “suppressing the symptoms of dystonia (summary statement)” value (dt^sz mutant hamster) does the source give for `COc1ccc(Cl)cc1C1(F)C(=O)Nc2cc(C(F)(F)F)ccc21` (stereo not shown) [maxipost, 3-(5-chloro-2-methoxyphenyl)-1,3-dihydro-3-fluoro-6-(trifluoromethyl)-2H-indole-2-one] here?
**A.** found to be active

**Q.** With `O=C1c2ccccc2C(Cc2ccncc2)(Cc2ccncc2)c2ccccc21` [XE-991, 10,10-bis(4-pyridinylmethyl)-9(10H)-anthracenone] as the molecule, how does the side effects (dt^sz mutant hamster; 6 mg/kg as printed, two out of 8 animals, facial contortions 10-20 min after administration) read?
**A.** moderate to unequivocal hyperlocomotion and moderate ataxia (up to 180 min) and marked initial facial contortions

**Q.** What about the “latency to onset of dystonia” value (dt^sz mutant hamster; i.p., not illustrated) of the same molecule?
**A.** tended to be decreased

**Q.** What about the side effects (dt^sz mutant hamster; the higher dose, all hamsters) of the same molecule?
**A.** facial contortions, salivation and increased defecation

**Q.** What about the “side effects: locomotion and ataxia” value (dt^sz mutant hamster; the higher dose, first h after administration) of the same molecule?
**A.** unequivocal hyperlocomotion and ataxia

**Q.** How did the antidystonic effects (dt^sz mutant hamster; 10 mg/kg i.p.) turn out when `CCOC(=O)Nc1ccc(NCc2ccc(F)cc2)nc1N` [Flupirtine, ethyl-N-[2-amino-6-(4-fluorophenylmethylamino)pyridin-3-yl]-carbamate] was run?
**A.** did not exerted significant antidystonic effects

**Q.** And the “Maximum severity 1st h, drug” value (dt^sz mutant hamster; 10 mg/kg i.p.)?
**A.** 3 score (6×) and 2 score (2×)

**Q.** What about the “Latency to onset (min), Drug” value (dt^sz mutant hamster; 10.0 mg/kg i.p., n=8) of the same molecule?
**A.** 6.9 ± 1.6 min

**Q.** What about the adverse effects (dt^sz mutant hamster; 10 mg/kg i.p., within the first hour after administration) of the same molecule?
**A.** moderate hypolocomotion and ataxia

**Q.** And the ataxia (dt^sz mutant hamster; 20 mg/kg i.p.)?
**A.** more marked ataxia (lasting up to 90 min)

**Q.** And the “latency to onset of dystonia” value (dt^sz mutant hamster; 20 mg/kg i.p.)?
**A.** increased the latency to onset of dystonia

**Q.** What about the progression of dystonia (dt^sz mutant hamster; 20 mg/kg i.p., first and second h) of the same molecule?
**A.** delayed the progression of dystonia

**Q.** What about the locomotion (dt^sz mutant hamster; 20 mg/kg i.p., hyperlocomotion 15-60 min after injection) of the same molecule?
**A.** unequivocal hypolocomotion (5 to 15 min after injection) followed by hyperlocomotion

**Q.** What about the “maximum severity of dystonia” value (dt^sz mutant hamster; 20 mg/kg i.p., third h) of the same molecule?
**A.** reduced the maximum severity

**Q.** What about the “Latency to onset (min), Drug” value (dt^sz mutant hamster; 20.0 mg/kg i.p., n=10, *P<0.05) of the same molecule?
**A.** 13.8 ± 3.8* min

**Q.** What about the “Maximum severity 1st h (score of dystonia), drug” value (dt^sz mutant hamster; individual animals, 20 mg/kg i.p. (in 0.9% NaCl), dt^sz hamsters, age 36-38 days of life) of the same molecule?
**A.** 2 score

**Q.** And the “Latency max (latency to stage 6), drug” value (dt^sz mutant hamster; individual animals, 20 mg/kg i.p., age 36-38 days of life)?
**A.** 154 min

**Q.** And the “Latency onset (latency on stage 2), drug, Mean” value (dt^sz mutant hamster; [2])?
**A.** 13.8 min

**Q.** What about the “Maximum severity 1st h (score of dystonia), drug, Mean” value (dt^sz mutant hamster; [2]) of the same molecule?
**A.** 2.0 score

**Q.** And the “Maximum severity 2nd h (score of dystonia), drug, Mean” value (dt^sz mutant hamster; [2])?
**A.** 2.6 score

**Q.** What about the “Maximum severity 3rd h (score of dystonia), drug, Mean” value (dt^sz mutant hamster; [2]) of the same molecule?
**A.** 2.9 score

**Q.** What about the “suppressing the symptoms of dystonia (summary statement)” value (dt^sz mutant hamster) of the same molecule?
**A.** found to be effective

**Q.** And the tolerability ([1]; 10 mg/kg i.p. after administration of L-DOPA)?
**A.** well tolerated

**Q.** And the dyskinetic symptoms ([1]; 10 mg/kg i.p. after administration of L-DOPA, cross over design)?
**A.** capable of suppressing the typical dyskinetic symptoms

**Q.** With `CCOC(=O)Nc1ccc(NCc2ccc(F)cc2)cc1N` [Retigabine, 2-amino-4-(4-fluorobenzylamino)-1-ethoxycarbonyl-aminobenzene] as the molecule, how does the “Latency max (min), drug” value (dt^sz mutant hamster; 5 mg/kg i.p., individual animals) read?
**A.** 43 min and 87 min and 39 min

**Q.** And the “Latency to onset (min), Drug” value (dt^sz mutant hamster; 5.0 mg/kg i.p., n=9)?
**A.** 27.1 ± 17.7 min

**Q.** And the “Latency max (min), drug” value (dt^sz mutant hamster; 7.5 mg/kg i.p., individual animals)?
**A.** 149 min

**Q.** What about the “Latency to onset (min), Drug” value (dt^sz mutant hamster; 7.5 mg/kg i.p., n=6, *P<0.05) of the same molecule?
**A.** 11.8 ± 1.0* min

**Q.** What about the pain after injection (dt^sz mutant hamster; 10 mg/kg i.p., first 5 min after injection) of the same molecule?
**A.** writhed with pain

**Q.** And the “Latency to onset (min), Drug” value (dt^sz mutant hamster; 10.0 mg/kg i.p., n=9)?
**A.** 7.1 ± 2.9 min

**Q.** And the “Maximum severity 1st h, drug” value (dt^sz mutant hamster; 10 mg/kg p.o.)?
**A.** 3 score (6×) and 2 score

**Q.** What about the “Latency max (min), drug” value (dt^sz mutant hamster; 10 mg/kg p.o., individual animals) of the same molecule?
**A.** 168 min and 148 min

**Q.** And the “Latency to onset (min), Drug” value (dt^sz mutant hamster; 10.0 mg/kg p.o., n=7)?
**A.** 4.9 ± 2.9 min

**Q.** And the locomotor activity (dt^sz mutant hamster; 10 mg/kg p.o., two hamsters)?
**A.** moderate reduction of the locomotor activity

**Q.** And the ataxia (dt^sz mutant hamster; [3])?
**A.** seven animals exhibited moderate ataxia

**Q.** And the hypolocomotion (dt^sz mutant hamster; [3])?
**A.** five hamsters showed moderate hypolocomotion

**Q.** And the “Maximum severity 1st h, drug” value (dt^sz mutant hamster; 20 mg/kg p.o.)?
**A.** 2 score (9×) and 3 score

**Q.** And the “Latency max (min), drug” value (dt^sz mutant hamster; 20 mg/kg p.o., individual animals)?
**A.** 104 min

**Q.** What about the “Latency to onset (min), Drug” value (dt^sz mutant hamster; 20.0 mg/kg p.o., n=10) of the same molecule?
**A.** 9.6 ± 2.0 min

**Q.** And the general condition (dt^sz mutant hamster; four hamsters, 5 mg/kg i.p. five days after 10 mg/kg i.p., one euthanized, dilated colon)?
**A.** bad general condition

**Q.** And the behavioural effects (dt^sz mutant hamster; i.p. injection, within the first h after administration)?
**A.** moderate to unequivocal hypolocomotion (sometimes interrupted by short lasting periods of increased locomotor activity) and ataxia

**Q.** And the side effects (dt^sz mutant hamster; oral doses of 10 and 20 mg/kg)?
**A.** did not exert severe side effects

**Q.** And the side effects ([1]; higher dosage, first hour of observation)?
**A.** marked hypolocomotion and ataxia
